Experiment [1] deals with T1, B1R receptor of the rat (rB1R) (Rattus norvegicus, UniProt P97583).
T1 construct: expressed in transfected cells; host or cells: CHO K1 cells (Chinese hamster ovary), stably transfected
T1 sequence (P97583 1-337): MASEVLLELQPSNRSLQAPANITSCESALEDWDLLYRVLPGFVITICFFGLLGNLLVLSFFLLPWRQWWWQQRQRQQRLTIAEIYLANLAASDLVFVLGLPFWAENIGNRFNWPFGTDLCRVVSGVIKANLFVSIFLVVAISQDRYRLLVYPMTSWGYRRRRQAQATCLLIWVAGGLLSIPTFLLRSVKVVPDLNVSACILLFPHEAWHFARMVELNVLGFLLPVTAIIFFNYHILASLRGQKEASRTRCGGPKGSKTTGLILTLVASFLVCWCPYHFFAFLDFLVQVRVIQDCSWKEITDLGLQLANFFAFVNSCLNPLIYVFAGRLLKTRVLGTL
Description: Functional FLIPR Ca2+ assay on the bradykinin 1 receptor, rat (rB1R CHO K1 cells). It is filed as cell-based. The settings on record: test substance 10 μM; CHO K1 cells transfected with rat B1R gene; agonist Des-Arg9-bradykinin at EC80; % inhibition compared with maximum achievable inhibition; read-out: B1R antagonism, rat [10 μM] % inhibition. How it is done: (§1) The agonistic or antagonistic action of substances can be quantified on the bradykinin 1 receptor (B1R) of the human and rat species with ectopically expressing cell lines (CHO K1 cells) and with the aid of a Ca^2+-sensitive dyestuff (Fluo-4) in a fluorescent imaging plate reader (FLIPR). The figure in % activation is based on the Ca^2+ signal after addition of Lys-Des-Arg^9-bradykinin (0.5 nM) or Des-Arg^9-bradykinin (100 nM). Antagonists lead to a suppression of the Ca^2+ inflow after addition of the agonist. % inhibition compared with the maximum achievable inhibition is stated.
(§2) The agonistic or antagonistic action of substances can be determined on the bradykinin 1 receptor (B1R) of the human and rat species with the following assay. In accordance with this assay, the Ca^2+ inflow through the channel is quantified with the aid of a Ca^2+-sensitive dyestuff (type Fluo-4, Molecular Probes Europe BV, Leiden, Holland) in a fluorescent imaging plate reader (FLIPR, Molecular Devices, Sunnyvale, USA).
(§3) Chinese hamster ovary cells (CHO K1 cells) transfected stably with the human B1R gene (hB1R cells) or the B1R gene of the rat (rB1R cells) are used. For functional studies, these cells are plated out on black 96-well plates with a clear base (BD Biosciences, Heidelberg, Germany or Greiner, Frickenhausen, Germany) in a density of 20,000-35,000 cells/well. The cells are left overnight at 37° C. and 5% CO2 in culture medium (hB1R cells: Nutrient Mixture Ham's F12, Gibco Invitrogen GmbH, Karlsruhe, Germany or DMEM, Sigma-Aldrich, Taufkirchen, Germany; rB1R cells: D-MEM/F12, Gibco Invitrogen GmbH, Karlsruhe, Germany) with 10 vol. % FBS (foetal bovine serum, Gibco Invitrogen GmbH, Karlsruhe, Germany or PAN Biotech GmbH, Aidenbach, Germany). On the following day, the cells are loaded for 60 min at 37° C. with 2.13 μM Fluo-4 (Molecular Probes Europe BV, Leiden, Holland) in HBSS buffer (Hank's buffered saline solution, Gibco Invitrogen GmbH, Karlsruhe, Germany) with 2.5 mM probenecid (Sigma-Aldrich, Taufkirchen, Germany) and 10 mM HEPES (Sigma-Aldrich, Taufkirchen, Germany). The plates are then washed 2× with HBSS buffer, and HBSS buffer which additionally contains 0.1% BSA (bovine serum albumin; Sigma-Aldrich, Taufkirchen, Germany), 5.6 mM glucose and 0.05% gelatine (Merck KgaA, Darmstadt, Germany) is added. After a further incubation of 20 minutes at room temperature, the plates are inserted into the FLIPR for the Ca^2+ measurement.
(§4) Alternatively, the plates are washed with buffer A (15 mM HEPES, 80 mM NaCl, 5 mM KCl, 1.2 mM CaCl2, 0.7 mM MgSO4, 2 g/l glucose, 2.5 mM probenecid), buffer A is added and the plates are loaded with 2.5 μM Fluo-4 and 0.025% Pluronic F127 (Sigma-Aldrich, Taufkirchen, Germany). Thereafter, the cells are washed 2× with buffer A and incubated for 30 minutes with buffer A, which additionally contains 0.05% BSA and 0.05% gelatine, at room temperature and thereafter inserted into the FLIPR for the Ca^2+ measurement. The Ca^2+-dependent fluorescence is measured here before and after addition of substances (λex=488 nm, λem=540 nm). Quantification is by measurement of the highest fluorescence intensity (FC, fluorescence counts) over time.
(§5) The FLIPR protocol consists of 2 additions of substance. Test substances (10 μM) are first pipetted on to the cells and the Ca^2+ inflow is compared with the control (hB1R: Lys-Des-Arg^9-bradykinin >=50 nM; rB1R: Des-Arg^9-bradykinin 10 μM). This gives the figure in % activation based on the Ca^2+ signal after addition of Lys-Des-Arg^9-bradykinin (>=50 nM) or Des-Arg^9-bradykinin (10 μM). After incubation for 10-20 minutes, Lys-Des-Arg^9-bradykinin (hB1R) or Des-Arg^9-bradykinin (rB1R) in the concentration of the EC80 is applied and the inflow of Ca^2+ is likewise determined. Antagonists lead to a suppression of the Ca^2+ inflow. % inhibition compared with the maximum achievable inhibition is calculated. In order to determine the IC50 value, the substances are added in various concentrations. […]

For experiment [2], the target named is T2, human B1R receptor (hB1R) (Homo sapiens, UniProt P46663).
T2 construct: expressed in transfected cells; host or cells: CHO K1 cells (Chinese hamster ovary), stably transfected
T2 sequence (P46663 1-353): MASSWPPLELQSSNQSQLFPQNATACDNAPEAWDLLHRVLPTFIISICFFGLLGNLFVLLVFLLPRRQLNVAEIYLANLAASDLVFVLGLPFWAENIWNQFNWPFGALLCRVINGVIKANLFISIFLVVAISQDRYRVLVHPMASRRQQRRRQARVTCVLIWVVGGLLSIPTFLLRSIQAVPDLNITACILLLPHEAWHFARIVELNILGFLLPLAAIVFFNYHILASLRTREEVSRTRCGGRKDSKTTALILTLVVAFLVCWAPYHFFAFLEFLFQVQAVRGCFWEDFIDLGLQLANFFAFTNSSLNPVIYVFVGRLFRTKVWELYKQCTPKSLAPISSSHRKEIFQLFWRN
Description: Functional FLIPR Ca2+ assay on the bradykinin 1 receptor, human (hB1R CHO K1 cells). It counts as cell-based. The settings on record: test substance 10 μM; CHO K1 cells transfected with human B1R gene; agonist Lys-Des-Arg9-bradykinin at EC80; % inhibition compared with maximum achievable inhibition; read-out: B1R antagonism, human (10 μM] % inhibition. How it is done:
as §1, §2, §3, §4, §5

Structures are written as SMILES.

Take `CN1CCN(Cc2cc3c(s2)CCN(C(=O)CC(NS(=O)(=O)c2ccc4ccccc4c2)c2ccccc2)C3)CC1` (racemic) [Example 46, N-(3-(2-((4-methylpiperazin-1-yl)methyl)-6,7-dihydrothieno[3,2-c]pyridin-5(4H)-yl)-3-oxo-1-phenylpropyl)naphthalene-2-sulfonamide]: the inhibition (commonly the relative decrease from the control value, in per cent) at 10 µM stood at 102% in experiment [1] and 100% in experiment [2].
As for `COc1cc(C)c(S(=O)(=O)N2CCCCC2CCC(=O)N2CCc3onc(-c4ccncc4)c3C2)c(C)c1` (stereo not shown) [Example 01, 3-(1-(4-Methoxy-2,6-dimethylphenylsulfonyl)piperidin-2-yl)-1-(3-(pyridin-4-yl)-6,7-dihydroisoxazolo[4,5-c]pyridin-5(4H)-yl)propan-1-one], the inhibition at 10 µM in experiment [1] stood at 98%; in experiment [2], 46%.
As for `COc1cc(C)c(S(=O)(=O)N2CCCCC2COCC(=O)N2CCc3onc(-c4ccncc4)c3C2)c(C)c1` (stereo not shown) [Example 02, 2-((1-(4-methoxy-2,6-dimethylphenylsulfonyl)piperidin-2-yl)methoxy)-1-(3-(pyridin-4-yl)-6,7-dihydroisoxazolo[4,5-c]pyridin-5(4H)-yl)ethanone], the inhibition at 10 µM worked out at 101% in experiment [1] and 100% in experiment [2].
For `O=C(C[C@@H](NS(=O)(=O)c1ccc2ccccc2c1)c1ccccc1)N1CCc2onc(-c3ccncc3)c2C1` [Example 03, I—N-(3-oxo-1-phenyl-3-(3-(pyridin-4-yl)-6,7-dihydroisoxazolo[4,5-c]pyridin-5(4H)-yl)propyl)naphthalene-2-sulfonamide] the same measures were 102% and 83%.
The like results for `O=C(CC1CCCCN1S(=O)(=O)c1cccc(C(F)(F)F)c1)N1CCc2onc(CN3CCCCC3)c2C1` (stereo not shown) [Example 05, 1-(3-(piperidin-1-ylmethyl)-6,7-dihydroisoxazolo[4,5-c]pyridin-5(4H)-yl)-2-(1-(3-(trifluoromethyl)phenylsulfonyl)piperidin-2-yl)ethanone] were, in that order, 27% and 48%.
The like results for `Cc1cc(S(=O)(=O)N2CCCCC2CCC(=O)N2CCc3onc(CN4CCCCC4)c3C2)c(C)cc1Cl` (stereo not shown) [Example 06, 3-(1-(4-chloro-2,5-dimethylphenylsulfonyl)piperidin-2-yl)-1-(3-(piperidin-1-ylmethyl)-6,7-dihydroisoxazolo[4,5-c]pyridin-5(4H)-yl)propan-1-one] were, in that order, 57% and 93%.
For `COc1cc(C)c(S(=O)(=O)N2CCCCC2COCC(=O)N2CCc3sccc3C2c2ccc(C)cc2)c(C)c1` (stereo not shown) [Example 07, 2-((1-(4-methoxy-2,6-dimethylphenylsulfonyl)piperidin-2-yl)methoxy)-1-(4-p-tolyl-6,7-dihydrothieno[3,2-c]pyridin-5(4H)-yl)ethanone], the inhibition at 10 µM stood at 104% in experiment [1] and 69% in experiment [2].
Take `COc1cc(C)c(S(=O)(=O)N2CCCCC2COCC(=O)N2CCc3sccc3C2c2cccc(C)c2)c(C)c1` (stereo not shown) [Example 08, 2-((1-(4-methoxy-2,6-dimethylphenylsulfonyl)piperidin-2-yl)methoxy)-1-(4-m-tolyl-6,7-dihydrothieno[3,2-c]pyridin-5(4H)-yl)ethanone]: the inhibition at 10 µM in experiment [1] was found to be 106%; in experiment [2], 48%.
For the compound `COc1cc(C)c(S(=O)(=O)N2CCCCC2COCC(=O)N2CCc3onc(CN4CCCCC4)c3C2)c(C)c1` (stereo not shown) [Example 09, 2-((1-(4-methoxy-2,6-dimethylphenylsulfonyl)piperidin-2-yl)methoxy)-1-(3-(piperidin-1-ylmethyl)-6,7-dihydroisoxazolo[4,5-c]pyridin-5(4H)-yl)ethanone], the values for the inhibition at 10 µM in experiment [1] and in experiment [2] were 105% and 100%, respectively.
For `Cc1cccc(C2c3ccsc3CCN2C(=O)CCC2CCCCN2S(=O)(=O)c2cc(C)c(Cl)cc2C)c1` (stereo not shown) [Example 10, 3-(1-(4-chloro-2,5-dimethylphenylsulfonyl)piperidin-2-yl)-1-(4-m-tolyl-6,7-dihydrothieno[3,2-c]pyridin-5(4H)-yl)propan-1-one] the same measures were 105% and 78%.
For `Cc1cc(S(=O)(=O)N2CCCCC2CCC(=O)N2CCc3sccc3C2c2ccccc2C)c(C)cc1Cl` (stereo not shown) [Example 11, 3-(1-(4-chloro-2,5-dimethylphenylsulfonyl)piperidin-2-yl)-1-(4-o-tolyl-6,7-dihydrothieno[3,2-c]pyridin-5(4H)-yl)propan-1-one] the same measures were 60% and 7%.
The like results for `COc1cc(C)c(S(=O)(=O)N2CCCCC2COCC(=O)N2CCc3sccc3C2c2ccccc2C)c(C)c1` (stereo not shown) [Example 12, 2-((1-(4-methoxy-2,6-dimethylphenylsulfonyl)piperidin-2-yl)methoxy)-1-(4-o-tolyl-6,7-dihydrothieno[3,2-c]pyridin-5(4H)-yl)ethanone] were, in that order, 104% and 64%.
Take `COc1cc(C)c(S(=O)(=O)N(C)CCOCC(=O)N2CCc3onc(CN4CCCCC4)c3C2)c(C)c1` [Example 13, 4-methoxy-N,2,6-trimethyl-N-(2-(2-oxo-2-(3-(piperidin-1-ylmethyl)-6,7-dihydroisoxazolo[4,5-c]pyridin-5(4H)-yl)ethoxy)ethyl)benzenesulfonamide]: the inhibition at 10 µM in experiment [1] was 99%; in experiment [2], 56%.
`COc1cc(C)c(S(=O)(=O)N2CCCCC2COCC(=O)N2CCc3onc(C(=O)N4CCCCC4)c3C2)c(C)c1` (stereo not shown) [Example 14, 2-((1-(4-methoxy-2,6-dimethylphenylsulfonyl)piperidin-2-yl)methoxy)-1-(3-(piperidin-1-carbonyl)-6,7-dihydroisoxazolo[4,5-c]pyridin-5(4H)-yl)ethanone]: the inhibition at 10 µM in experiment [1] turned out to be 99%; in experiment [2], 85%.

Values taken from patent publication US8268814B2, “Substituted sulfonamide compounds” (Gruenenthal GmbH, priority 2008, dated 2012).
